Results as given in patent publication US20160137639A1, “TRIAZOLE-ISOXAZOLE COMPOUND AND MEDICAL USE THEREOF” (JAPAN TOBACCO INC., priority 2012, published 2016).

Biological target: T1, human RORγ (Homo sapiens, UniProt P51449)
T1 construct: human, NM_005060.3 and from Ser253 to Lys518; expressed in transfected cells; host or cells: CHO cells (transient co-transfection with pG5-Luc reporter)
T1 sequence (P51449 253-518): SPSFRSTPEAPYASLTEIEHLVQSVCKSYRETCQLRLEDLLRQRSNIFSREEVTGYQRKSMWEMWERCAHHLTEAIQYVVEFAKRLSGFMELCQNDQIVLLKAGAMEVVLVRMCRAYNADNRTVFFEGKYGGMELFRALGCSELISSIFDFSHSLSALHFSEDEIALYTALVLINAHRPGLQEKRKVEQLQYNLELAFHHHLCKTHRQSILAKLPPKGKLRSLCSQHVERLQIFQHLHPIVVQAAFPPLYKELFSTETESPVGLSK
Assay: Luciferase reporter gene assay of inhibitory effect against RORγ transcriptional activity (GAL4-hRORγ plasmid in CHO cells)
Format: cell-based
Conditions: read-out: LUC EC50 (μM) hRORg

Structure (SMILES) | EC50 [µM]
Cc1c(NC(=O)CCc2nnc(CCC(C)C)n2C2CC2)cccc1C(F)(F)F [Example F-99] | > 3
Cc1c(Cl)cccc1NC(=O)CCc1nnc(CCN(C)C(C)(C)C)n1C1CC1 [Example F-294] | > 3
Cc1ccc(NC(=O)CC(CCCO)c2nnc(CCCC(C)C)n2C2CC2)c(C)c1 (racemic) [Example F-214] | < 3
Cc1cnccc1CNC(=O)CCc1nnc(CCC(C)C)n1C1CC1 [Example F-111] | > 3
Cc1ccc(NCc2nnc(CCC(=O)Nc3cccc(Cl)c3C)n2C2CC2)cc1C [Example F-207] | < 3
CC(C)CCc1nnc(CCC(=O)NCc2ccccc2C(F)(F)F)n1C1CC1 [Example F-130] | > 3
Cc1ccccc1CCNC(=O)CCc1nnc(CCC(C)C)n1C1CC1 [Example F-116] | > 3
Cc1ccc(CNC(=O)CCc2nnc(CCC(C)C)n2C2CC2)c(O)c1 [Example F-149] | > 3
CCCc1ccc(C)c(NC(=O)CCc2nnc(CCC(C)C)n2C2CC2)c1 [Example F-153] | > 3
CCC(=O)N1C[C@H](C(=O)Nc2ccc(C)cc2C)[C@@H](c2nnc(CCCC(C)(C)C)n2C2CC2)C1 (racemic) [Example F-400] | < 3
CCOC(=O)C(CC(=O)Nc1cccc(Cl)c1C)c1nnc(CCC(C)C)n1C1CC1 (racemic) [Example F-159] | > 3
Cc1ccc(NC(=O)CC(CC(=O)N(C)C)c2nnc(CCCC(C)C)n2C2CC2)c(C)c1 (racemic) [Example F-266] | < 3
CCn1c(CC(C)C(=O)Nc2cccc3ccccc23)nnc1C1Cc2ccccc2C1 (racemic) [Example F-32] | < 3
Cc1ccc(NC(=O)[C@H]2CCCN(C)[C@@H]2c2nnc(CCC3CCCCC3)n2C2CC2)c(C)c1 [Example F-295] | < 3
CCn1c(C2Cc3ccccc3C2)nnc1[C@H](C)CC(=O)Nc1cccc2ccccc12 [Example F-2] | < 3
Cc1ccc(NC(=O)C[C@H](CCO)c2nnc(CCCC(C)(C)C)n2CC(F)(F)F)c(C)c1 [Example F-380] | < 3
Cc1ccccc1NC(=O)CCc1nnc(CCC(C)C)n1C1CC1 [Example F-64] | > 3
Cc1ccc(NC(=O)[C@H]2CN(C(=O)N(C)C)C[C@@H]2c2nnc(CCCC(C)(C)C)n2C2CC2)c(C)c1 (racemic) [Example F-447] | < 3
Cc1ccc(NC(=O)CCc2nnc([C@H]3C[C@H](CC(C)C)C3)n2C2CC2)c(C)c1 [Example F-357] | < 3
Cc1ccc(NC(=O)C[C@@H](CCO)c2nnc(-c3cc(CC(C)C)on3)n2C2CC2)c(C)c1 [Example F-458] | > 3
Cc1c(Br)cccc1NC(=O)CCc1nnc(CCC(C)C)n1C1CC1 [Example F-84] | < 3
CNC(=O)CC(CC(=O)Nc1ccc(C)cc1C)c1nnc(CCCC(C)C)n1C1CC1 (racemic) [Example F-265] | > 3
Cc1cccc(CCNC(=O)CCc2nnc(CCC(C)C)n2C2CC2)c1 [Example F-68] | > 3
Cc1cccnc1CNC(=O)CCc1nnc(CCC(C)C)n1C1CC1 [Example F-110] | > 3
CC1(Cc2cc(-c3onc([C@@H](CCC(=O)O)CC(=O)Nc4ccc(Cl)cc4F)c3C3CC3)no2)CC1 [Example E-64] | < 3
CC(=O)N1C[C@@H](C(=O)Nc2ccc(C)cc2C)[C@H](c2nnc([C@H]3C[C@@H](CC(C)(C)C)C3)n2C2CC2)C1 [Example F-462] | < 3

Biological target: T2, mouse RORγ (Mus musculus, UniProt P51450)
T2 construct: mouse, NM_011281.2 and from Ile251 to Lys516; expressed in transfected cells; host or cells: CHO cells (transient co-transfection with pG5-Luc reporter)
T2 sequence (P51450 251-516): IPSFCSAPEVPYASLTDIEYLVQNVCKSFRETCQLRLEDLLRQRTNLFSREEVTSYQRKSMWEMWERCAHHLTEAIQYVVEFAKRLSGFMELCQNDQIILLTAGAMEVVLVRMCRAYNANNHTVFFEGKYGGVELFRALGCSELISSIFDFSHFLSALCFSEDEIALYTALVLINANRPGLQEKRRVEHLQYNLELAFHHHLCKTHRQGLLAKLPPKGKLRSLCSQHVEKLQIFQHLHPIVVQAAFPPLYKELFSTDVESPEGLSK
Assay: Luciferase reporter gene assay of inhibitory effect against RORγ transcriptional activity (GAL4-mRORγ plasmid in CHO cells)
Format: cell-based
Conditions: read-out: LUC EC50 (μM) mRORg
Procedure, shortened: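 Readout is intracellular luciferase after 2-day compound exposure (8 concentrations, 0.1% DMSO) in CHO cells expressing GAL4 fused to mouse RORγ LBD residues Ile251–Lys516 plus pG5-Luc reporter. EC50 fitted from %-of-control; points showing resazurin-detected cytotoxicity dropped.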

Structure (SMILES) | EC50 [µM]
Cc1c(NC(=O)CCc2nnc(CCC(C)C)n2C2CC2)cccc1C(F)(F)F [Example F-99] | < 3
Cc1c(Cl)cccc1NC(=O)CCc1nnc(CCN(C)C(C)(C)C)n1C1CC1 [Example F-294] | > 3
Cc1ccc(NC(=O)CC(CCCO)c2nnc(CCCC(C)C)n2C2CC2)c(C)c1 (racemic) [Example F-214] | < 3
Cc1cnccc1CNC(=O)CCc1nnc(CCC(C)C)n1C1CC1 [Example F-111] | > 3
Cc1ccc(NCc2nnc(CCC(=O)Nc3cccc(Cl)c3C)n2C2CC2)cc1C [Example F-207] | < 3
CC(C)CCc1nnc(CCC(=O)NCc2ccccc2C(F)(F)F)n1C1CC1 [Example F-130] | > 3
Cc1ccccc1CCNC(=O)CCc1nnc(CCC(C)C)n1C1CC1 [Example F-116] | > 3
Cc1ccc(CNC(=O)CCc2nnc(CCC(C)C)n2C2CC2)c(O)c1 [Example F-149] | > 3
CCCc1ccc(C)c(NC(=O)CCc2nnc(CCC(C)C)n2C2CC2)c1 [Example F-153] | > 3
CCC(=O)N1C[C@H](C(=O)Nc2ccc(C)cc2C)[C@@H](c2nnc(CCCC(C)(C)C)n2C2CC2)C1 (racemic) [Example F-400] | < 3
CCOC(=O)C(CC(=O)Nc1cccc(Cl)c1C)c1nnc(CCC(C)C)n1C1CC1 (racemic) [Example F-159] | > 3
Cc1ccc(NC(=O)CC(CC(=O)N(C)C)c2nnc(CCCC(C)C)n2C2CC2)c(C)c1 (racemic) [Example F-266] | < 3
CCn1c(CC(C)C(=O)Nc2cccc3ccccc23)nnc1C1Cc2ccccc2C1 (racemic) [Example F-32] | < 3
Cc1ccc(NC(=O)[C@H]2CCCN(C)[C@@H]2c2nnc(CCC3CCCCC3)n2C2CC2)c(C)c1 [Example F-295] | < 3
CCn1c(C2Cc3ccccc3C2)nnc1[C@H](C)CC(=O)Nc1cccc2ccccc12 [Example F-2] | < 3
Cc1ccc(NC(=O)C[C@H](CCO)c2nnc(CCCC(C)(C)C)n2CC(F)(F)F)c(C)c1 [Example F-380] | < 3
Cc1ccccc1NC(=O)CCc1nnc(CCC(C)C)n1C1CC1 [Example F-64] | > 3
Cc1ccc(NC(=O)[C@H]2CN(C(=O)N(C)C)C[C@@H]2c2nnc(CCCC(C)(C)C)n2C2CC2)c(C)c1 (racemic) [Example F-447] | < 3
Cc1ccc(NC(=O)CCc2nnc([C@H]3C[C@H](CC(C)C)C3)n2C2CC2)c(C)c1 [Example F-357] | < 3
Cc1ccc(NC(=O)C[C@@H](CCO)c2nnc(-c3cc(CC(C)C)on3)n2C2CC2)c(C)c1 [Example F-458] | > 3
Cc1c(Br)cccc1NC(=O)CCc1nnc(CCC(C)C)n1C1CC1 [Example F-84] | < 3
CNC(=O)CC(CC(=O)Nc1ccc(C)cc1C)c1nnc(CCCC(C)C)n1C1CC1 (racemic) [Example F-265] | < 3
Cc1cccc(CCNC(=O)CCc2nnc(CCC(C)C)n2C2CC2)c1 [Example F-68] | > 3
Cc1cccnc1CNC(=O)CCc1nnc(CCC(C)C)n1C1CC1 [Example F-110] | > 3
CC1(Cc2cc(-c3onc([C@@H](CCC(=O)O)CC(=O)Nc4ccc(Cl)cc4F)c3C3CC3)no2)CC1 [Example E-64] | < 3
CC(=O)N1C[C@@H](C(=O)Nc2ccc(C)cc2C)[C@H](c2nnc([C@H]3C[C@@H](CC(C)(C)C)C3)n2C2CC2)C1 [Example F-462] | < 3
